The target in this assay is T1, ENaC (Homo sapiens, UniProt P37088+P51168+P51170).
T1 construct: Primary NHBE cells were isolated from bronchi of normal healthy patients; endogenous in cells; host or cells: primary normal human bronchial epithelial (NHBE) cells, differentiated at air-liquid interface
T1 sequence (P37088 1-669): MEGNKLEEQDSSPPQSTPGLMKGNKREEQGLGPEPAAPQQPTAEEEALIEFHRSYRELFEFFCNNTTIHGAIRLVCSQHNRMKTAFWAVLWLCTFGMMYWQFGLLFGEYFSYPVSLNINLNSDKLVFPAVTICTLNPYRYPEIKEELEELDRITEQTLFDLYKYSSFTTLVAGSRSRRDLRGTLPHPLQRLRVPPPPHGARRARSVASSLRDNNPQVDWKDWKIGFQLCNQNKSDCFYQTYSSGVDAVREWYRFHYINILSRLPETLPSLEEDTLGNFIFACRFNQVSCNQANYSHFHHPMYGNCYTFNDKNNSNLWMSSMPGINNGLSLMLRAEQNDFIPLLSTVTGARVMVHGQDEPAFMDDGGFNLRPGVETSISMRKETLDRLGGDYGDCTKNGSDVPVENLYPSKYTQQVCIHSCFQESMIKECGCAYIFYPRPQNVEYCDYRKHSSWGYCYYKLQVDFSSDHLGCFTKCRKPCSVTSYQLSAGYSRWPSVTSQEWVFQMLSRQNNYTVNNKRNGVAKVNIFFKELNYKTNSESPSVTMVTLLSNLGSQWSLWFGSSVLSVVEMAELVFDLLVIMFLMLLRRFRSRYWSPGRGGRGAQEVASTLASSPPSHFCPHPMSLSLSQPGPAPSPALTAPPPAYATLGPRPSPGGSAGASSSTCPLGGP
T1 sequence (P51168 1-640): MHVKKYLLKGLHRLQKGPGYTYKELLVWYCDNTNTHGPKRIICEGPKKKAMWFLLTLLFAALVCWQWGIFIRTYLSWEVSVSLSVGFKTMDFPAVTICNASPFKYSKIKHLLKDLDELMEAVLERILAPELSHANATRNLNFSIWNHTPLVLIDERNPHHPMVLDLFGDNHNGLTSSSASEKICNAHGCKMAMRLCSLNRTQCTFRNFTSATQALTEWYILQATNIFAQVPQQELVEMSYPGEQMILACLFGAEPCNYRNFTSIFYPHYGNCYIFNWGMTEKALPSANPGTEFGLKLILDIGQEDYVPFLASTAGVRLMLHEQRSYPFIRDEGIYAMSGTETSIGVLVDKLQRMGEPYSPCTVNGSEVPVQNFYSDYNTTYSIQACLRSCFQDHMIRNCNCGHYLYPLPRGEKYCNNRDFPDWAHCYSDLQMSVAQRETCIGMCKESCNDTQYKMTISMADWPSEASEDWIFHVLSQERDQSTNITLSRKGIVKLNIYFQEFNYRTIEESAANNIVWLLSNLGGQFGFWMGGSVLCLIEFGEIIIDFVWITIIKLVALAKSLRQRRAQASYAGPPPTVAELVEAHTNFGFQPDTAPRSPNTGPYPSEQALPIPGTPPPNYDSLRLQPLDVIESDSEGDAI
T1 sequence (P51170 1-649): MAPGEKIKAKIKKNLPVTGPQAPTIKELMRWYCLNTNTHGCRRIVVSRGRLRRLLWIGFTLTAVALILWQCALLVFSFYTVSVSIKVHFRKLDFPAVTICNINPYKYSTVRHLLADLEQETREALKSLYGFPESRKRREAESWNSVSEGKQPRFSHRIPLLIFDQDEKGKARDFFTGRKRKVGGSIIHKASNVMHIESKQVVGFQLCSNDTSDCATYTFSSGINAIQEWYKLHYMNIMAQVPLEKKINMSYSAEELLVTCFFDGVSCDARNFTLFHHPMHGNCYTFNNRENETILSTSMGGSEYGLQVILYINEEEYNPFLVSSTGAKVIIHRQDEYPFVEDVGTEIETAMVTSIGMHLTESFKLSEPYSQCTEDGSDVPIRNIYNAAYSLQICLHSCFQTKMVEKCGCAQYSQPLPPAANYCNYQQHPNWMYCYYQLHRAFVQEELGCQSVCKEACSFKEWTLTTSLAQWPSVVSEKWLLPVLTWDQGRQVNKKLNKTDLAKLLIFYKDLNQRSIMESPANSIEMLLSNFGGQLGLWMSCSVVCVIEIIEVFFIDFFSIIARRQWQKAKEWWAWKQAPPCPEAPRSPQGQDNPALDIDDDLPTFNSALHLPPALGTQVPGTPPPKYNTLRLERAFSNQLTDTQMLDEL
Put plainly: ENaC inhibition in NHBE cell monolayers, Ussing epithelial voltage clamp (short circuit current). Format: cell-based. The procedure:
The objective of this study was to measure the ability of the illustrative conjugates to modulate ion transport function of ENAC in normal human bronchial epithelial (NHBE) cell monolayers. Sodium transport function of ENAC expressed in NHBE monolayers was evaluated using an Ussing epithelial voltage clamp apparatus. See, Hirsh et al., J. Pharmacol. Exp. Ther. 2008; 325:77-88, hereby incorporated by reference in its entirety.
Primary NHBE cells were isolated from bronchi of normal healthy patients, expanded in Lonza media (BEGM™ BulletKit™), and plated on Snapwell™ filters to form an epithelium. Cells on Snapwell™ inserts were grown for at least 21 days in Vertex Differentiation media and exposed to an air-liquid interface to promote differentiation. At least one day before the assay, mucous overlaying the apical surface was removed from the inserts by incubating the apical surface for about 30 minutes with ≥200 μL of differentiation media followed by aspiration of the mucous film and media.
The NHBE cell monolayers grown on Snapwell™ filter inserts were transferred to Physiologic Instruments Ussing recording chambers (Physiologic Instruments, Inc., San Diego, CA) and superfused with HB-PS. One or more 6-channel or 8-channel Physiologic Instruments VCC MC6 or VCC MC8 epithelial voltage clamps were used in combination to record short circuit current (ISC) from up to 24 inserts simultaneously. Air was used to operate the bubble lifts to rapidly circulate solutions in each Ussing chamber half and to aerate the monolayers.
Inserts were voltage clamped at 0 m V to record the ISC. Bumetanide (20 μM) was added to the basolateral side of all inserts. Test conjugates prepared as DMSO (Sigma-Aldrich) stocks were added cumulatively and sequentially to the apical Ussing chamber halves with at least 3 minutes between each addition.
Time and volume matched additions of DMSO to the basolateral side of the test conjugate treated inserts and both sides of the vehicle treated inserts was made to maintain osmotic balance across the epithelia. Transepithelial resistance was monitored with small voltage steps. The assay was performed at 35±2° C.
ENaC current at each test conjugate concentration was calculated as the peak current change produced by each test conjugate treated insert minus the mean current change produced by the corresponding DMSO additions to time-matched vehicle controls inserts. Cumulative difference data was fit to a Hill equation of the form: […]
Where IEnaC is the ISC peak difference current measured at each test conjugate concentration [Test].

The mark [1] stands for this setting: NHBE cell monolayers, Ussing chamber, apical addition, 35±2° C., read-out: IC50 for the ENaC inhibition.
Setting [2] is: NHBE cell monolayers, Ussing chamber, apical addition, 35±2° C.

Read-outs that look alike come from different tables or passages of the source. Where a SMILES comes first, the peptide text is derived from it. [ ]: non-standard residue; d: D form. The star is where a group is joined. X2 = NC(=NC(=O)c1nc(Cl)c(N)nc1N)NCCCCN1C(=O)CC(*)C1=O; Hyp = O=C(O)[C@@H]1C[C@@H](O)CN1; Ahx = NCCCCCC(=O)O

On to `CC(=O)N[C@@H](CCCCNC(N)=NC(=O)c1nc(Cl)c(N)nc1N)C(=O)NCCCCCC(=O)N[C@@H](C)C(=O)N[C@@H](CO)C(=O)N[C@@H](Cc1c[nH]cn1)C(=O)N[C@@H](CC(C)C)C(=O)N[C@@H](CCCNC(=N)N)C(=O)N[C@@H](CCCCN)C(=O)N[C@@H](CC(C)C)C(=O)N[C@@H](CCCNC(=N)N)C(=O)N[C@@H](CCCCN)C(=O)N[C@@H](CCCNC(=N)N)C(=O)N[C@@H](CC(C)C)C(=O)N[C@@H](CC(C)C)C(N)=O` [Conjugate 2] (HELM PEPTIDE1{[ac].[NC(=NC(=O)c1nc(Cl)c(N)nc1N)NCCCC[C@H](N[*:1])C(=O)[*:2]].[O=C(CCCCCN[*:1])[*:2]].A.S.H.L.R.K.L.R.K.R.L.L.[am]}$$$$V2.0), for which the IC50 under setting [1] turned out to be 80 nM. For the compound “Ac-K-(Ahx)-ALA(Hyp)YI-NH2 (Ac-K[Ahx]ALA[Hyp]YI-NH2) [Peptide only Control 1, Peptide only control, reference compound]”, the “IC50 for the ENaC inhibition” value under setting [2] is “Did not inhibit”.

Take `CC[C@H](C)[C@H](NC(=O)[C@H](Cc1ccc(O)cc1)NC(=O)[C@@H]1C[C@@H](O)CN1C(=O)[C@H](C)NC(=O)[C@H](CC(C)C)NC(=O)[C@H](C)NC(=O)CCCCCNC(=O)[C@H](CCCCn1cc(CCCCCNC(N)=NC(=O)c2nc(Cl)c(N)nc2N)nn1)NC(C)=O)C(N)=O` [Conjugate 4, Ac-(AmilCC1-AzK)-Ahx-ALA(Hyp)YI-NH2]: the half-maximal inhibitory concentration (IC50) under setting [1] was 240 nM.

On to `CC(=O)N[C@@H](CCCCn1cc(CCCCCNC(N)=NC(=O)c2nc(Cl)c(N)nc2N)nn1)C(=O)NCCCCCC(=O)N[C@H](C(=O)N[C@@H](CO)C(=O)N[C@@H](CCCCN)C(=O)N[C@@H](CCCNC(=N)N)C(=O)N[C@@H](CCCNC(=N)N)C(N)=O)C(C)C` [Conjugate 6, Ac-(AmilCC1-AzK)-Ahx-VSKRR-NH2], for which the IC50 under setting [1] worked out at 90 nM. On to “Ac-K-(Ahx)-VSKRR-NH2 (Ac-K[Ahx]VSKRR-NH2) [Peptide only Control 3, Peptide only control, reference compound]”, for which the “IC50 for the ENaC inhibition” value under setting [2] is given as “Did not inhibit”. For `CC[C@H](C)[C@H](NC(=O)[C@H](Cc1ccc(O)cc1)NC(=O)[C@@H]1C[C@@H](O)CN1C(=O)[C@H](C)NC(=O)[C@H](CC(C)C)NC(=O)[C@H](C)NC(=O)CCCCCNC(=O)[C@H](CCCCNC(N)=NC(=O)c1nc(Cl)c(N)nc1N)NC(C)=O)C(N)=O` [Conjugate 1, Ac-(AmilAC)K-(Ahx)-ALA(Hyp)YI-NH2] (HELM PEPTIDE1{[ac].[NC(=NC(=O)c1nc(Cl)c(N)nc1N)NCCCC[C@H](N[*:1])C(=O)[*:2]].[O=C(CCCCCN[*:1])[*:2]].A.L.A.[Hyp].Y.I.[am]}$$$$V2.0), the IC50 under setting [1] is 290 nM. For `CC[C@H](C)[C@H](NC(=O)[C@H](Cc1ccc(O)cc1)NC(=O)[C@@H]1C[C@@H](O)CN1C(=O)[C@H](C)NC(=O)[C@H](CC(C)C)NC(=O)[C@H](C)NC(=O)CCCCCNC(=O)[C@H](Cc1cn(CCCCNC(N)=NC(=O)c2nc(Cl)c(N)nc2N)nn1)NC(C)=O)C(N)=O` [Conjugate 7, Ac-(AmilCC2-Pgy)-Ahx-ALA(Hyp)YI-NH2], the IC50 under setting [1] worked out at 790 nM. Consider `CC(=O)N[C@@H](CCCCNC(N)=NC(=O)c1nc(Cl)c(N)nc1N)C(=O)NCCCCCC(=O)N[C@H](C(=O)N[C@@H](CO)C(=O)N[C@@H](CCCCN)C(=O)N[C@@H](CCCNC(=N)N)C(=O)N[C@@H](CCCNC(=N)N)C(N)=O)C(C)C` [Conjugate 3, Ac-(AmilAC)K-(Ahx)-VSKRR-NH2] (HELM PEPTIDE1{[ac].[NC(=NC(=O)c1nc(Cl)c(N)nc1N)NCCCC[C@H](N[*:1])C(=O)[*:2]].[O=C(CCCCCN[*:1])[*:2]].V.S.K.R.R.[am]}$$$$V2.0), for which, under setting [1], the IC50 came out at 50 nM. Moreover, where the note is “relative to amiloride IC50”, the “fold more potent than amiloride (ENaC inhibition)” value was “about 10 fold”.

In the case of “Ac-K-(Ahx)-ASHLRKLRKRLL-NH2 (Ac-K[Ahx]ASHLRKLRKRLL-NH2) [Peptide only Control 2, Peptide only control, reference compound]”, the “IC50 for the ENaC inhibition” value under setting [2] is recorded as “Did not inhibit”. `CC(=O)N[C@@H](CSC1CC(=O)N(CCCCNC(N)=NC(=O)c2nc(Cl)c(N)nc2N)C1=O)C(=O)NCCCCCC(=O)N[C@@H](C)C(=O)N[C@@H](CO)C(=O)N[C@@H](Cc1c[nH]cn1)C(=O)N[C@@H](CC(C)C)C(=O)N[C@@H](CCCNC(=N)N)C(=O)N[C@@H](CCCCN)C(=O)N[C@@H](CC(C)C)C(=O)N[C@@H](CCCNC(=N)N)C(=O)N[C@@H](CCCCN)C(=O)N[C@@H](CCCNC(=N)N)C(=O)N[C@@H](CC(C)C)C(=O)N[C@@H](CC(C)C)C(N)=O` (stereo partly shown) [Conjugate 11] (Ac-C(X2)[Ahx]ASHLRKLRKRLL-NH2): the IC50 is 70 nM.

As to `CC[C@H](C)[C@H](NC(=O)[C@H](Cc1ccc(O)cc1)NC(=O)[C@@H]1C[C@@H](O)CN1C(=O)[C@H](C)NC(=O)[C@H](CC(C)C)NC(=O)[C@H](C)NC(=O)CCCCCNC(=O)[C@H](CSC1CC(=O)N(CCCCNC(N)=NC(=O)c2nc(Cl)c(N)nc2N)C1=O)NC(C)=O)C(N)=O` (stereo partly shown) [Conjugate 10, Ac-(AmilTC-C)-Ahx-ALA(Hyp)YI-NH2] (Ac-C(X2)[Ahx]ALA[Hyp]YI-NH2), the IC50 worked out at 490 nM. As to `CC(=O)N[C@@H](CSC1CC(=O)N(CCCCNC(N)=NC(=O)c2nc(Cl)c(N)nc2N)C1=O)C(=O)NCCCCCC(=O)N[C@H](C(=O)N[C@@H](CO)C(=O)N[C@@H](CCCCN)C(=O)N[C@@H](CCCNC(=N)N)C(=O)N[C@@H](CCCNC(=N)N)C(N)=O)C(C)C` (stereo partly shown) [Conjugate 12, Ac-(AmilTC-C)-Ahx-VSKRR-NH2] (Ac-C(X2)[Ahx]VSKRR-NH2), the half-maximal inhibitory concentration (IC50) under setting [1] is 80 nM.

The values are drawn from patent US20240374585A1, “EPITHELIAL SODIUM CHANNEL (ENAC) INHIBITOR CONJUGATES AND METHODS FOR USE THEREOF” (Lung Therapeutics, Inc., priority 2021, published 2024).
